# Reference: publication PMC5321434, “Dihydrobenz[e][1,4]oxazepin-2(3H)-ones, a new anthelmintic chemotype immobilising whipworm and reducing infectivity in vivo” (PLoS Neglected Tropical Diseases, 2017)
# Read-outs that look alike come from different tables or passages of the source.
# B1: papain (protein, UniProt P00784 134-345, looked up)
# Papain: IPEYVDWRQKGAVTPVKNQGSCGSCWAFSAVVTIEGIIKIRTGNLNEYSEQELLDCDRRSYGCNGGYPWSALQLVAQYGIHYRNTYPYEGVQRYCRSREKGPYAAKTDGVRQVQPYNEGALLYSIANQPVSVVLEAAGKDFQLYRGGIFVGPCGNKVDHAVAAVGYGPNYILIKNSWGTGWGENGYIRIKRGTGNSYGVCGLYTSSFYPVKN
# notes: purified protease
# Experiments:
# T. trichiura = conditions: cited from earlier work
# Ascaris = test system: Ascaris; set-up: method as in PMID 18430913; conditions: annual treatment; cited from earlier work
# [1] = test system: CMT-93 murine rectal epithelial cells; experiment: WST-8 cytotoxicity assay; format: cell-based, mouse; conditions: CMT-93 cells, 72 hours, maximum tested concentration 100μM, n = 8, 95% confidence interval in parentheses
# Method: (§1) CMT-93 murine rectal epithelial cells were maintained in Dulbecco's Modified Eagle's Medium (DMEM) with 10% fetal calf serum (FCS) and 1% penicillin-streptomycin solution (10,000U/ml). Cells were plated in 96-well tissue culture plates at a density of 2x10^2 cells per well in a volume of 100μl, and cultured for 96 hours (37°C, 5% CO2) until reaching 30% confluence. The growth medium was removed and replaced with treatment media (DMEM, 1% FCS, 1% penicillin-streptomycin solution, 100μl assay volume) supplemented with vehicle alone (DMSO), test compounds or chlorpromazine, a positive control for cytotoxicity (final concentrations from 0 to 100μM). Maximum vehicle concentration for all compounds was 0.5% DMSO. Cells were cultured with the test compounds for 72 hours before cytotoxicity measurement. The WST-8 assay was performed using the Cell Counting Kit– 8 (Sigma Aldrich # 96992). 10μl of the CCK-8 solution was added to each well, plates were incubated for a further 2 hours, before absorbance was measured at 450nm using a microplate reader. This assay measures the ability of metabolically active cells to reduce a water-soluble formazan dye. Results were analysed using GraphPad Prism and fitted using a log-logistic model.
# [2] = test system: CMT-93 murine rectal epithelial cells; experiment: Neutral red cytotoxicity assay; format: cell-based, mouse; conditions: CMT-93 cells, 72 hours, maximum tested concentration 100μM, n = 8, 95% confidence interval in parentheses
# Method: (§2) CMT-93 murine rectal epithelial cells were maintained in Dulbecco's Modified Eagle's Medium (DMEM) with 10% fetal calf serum (FCS) and 1% penicillin-streptomycin solution (10,000U/ml). Cells were plated in 96-well tissue culture plates at a density of 2x10^2 cells per well in a volume of 100μl, and cultured for 96 hours (37°C, 5% CO2) until reaching 30% confluence. The growth medium was removed and replaced with treatment media (DMEM, 1% FCS, 1% penicillin-streptomycin solution, 100μl assay volume) supplemented with vehicle alone (DMSO), test compounds or chlorpromazine, a positive control for cytotoxicity (final concentrations from 0 to 100μM). Maximum vehicle concentration for all compounds was 0.5% DMSO. Cells were cultured with the test compounds for 72 hours before cytotoxicity measurement. Following the WST-8 assay, the medium was removed, cells were washed with 100μl PBS and then 100μl of neutral red medium (DMEM, 1% FBS and 33μg/ml neutral red dye (Sigma Aldrich #N2889) were added to each well, followed by incubation for a further 2 hours. The neutral red medium was removed, cells washed with 100μl of PBS and 100μl of destain solution (50% ethanol, 49% distilled water and 1% glacial acetic acid) were added. Each assay plate was shaken rapidly for 10 minutes before absorbance was measured at 540nm using a microplate reader. This assay measures the ability of living cells to actively take up the neutral red dye. Results were analysed using GraphPad Prism and fitted using a log-logistic model.
# adult T. muris = experiment: Ex vivo adult T. muris automated motility assay (primary/secondary screen at 100 μM and dose-response); set-up: species or system Trichuris muris; conditions: for COMBINED_SCREEN_ACTIVITY: combined primary and secondary screen minus log fold change in movement, adult T. muris; for COMBINED_SCREEN_ACTIVITY / PRIMARY_SCREEN_MINUS_LOG_FOLD_CHANGE_MOVEMENT / SECONDARY_SCREEN_MINUS_LOG_FOLD_CHANGE_MOVEMENT: 100 μM; for PRIMARY_SCREEN_MINUS_LOG_FOLD_CHANGE_MOVEMENT: primary screen; for PRIMARY_SCREEN_MINUS_LOG_FOLD_CHANGE_MOVEMENT / SECONDARY_SCREEN_MINUS_LOG_FOLD_CHANGE_MOVEMENT: adult T. muris motility; for SECONDARY_SCREEN_MINUS_LOG_FOLD_CHANGE_MOVEMENT: secondary screen
# In short: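 Motility scored after 24 h (37 °C, 5% CO2) by automated imaging of pixel intensity variance, one worm per well, four weekly biological replicates. Worms came from SCID mice infected orally with 200 eggs, harvested day 35; screening at 100 μM final in RPMI-1640/antibiotics, 1% DMSO; curves fitted with four-parameter log-logistic model.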
# T. muris [3] = conditions: associated with cuticular damage; cited from earlier work
# T. muris [4] = conditions: associated with damage to nematode cuticle; cited from earlier work
# WST-8 cytotoxicity assay = format: cell-based, mouse; conditions: mouse, CMT-93 rectal epithelial cells; resynthesised compound, WST-8 cytotoxicity; read-out: ResynCytotoxityWST-8(EC50uM)
# Method: as §1
# [5] = test system: un-embryonated T. muris eggs; experiment: Embryonation assay; set-up: species or system Trichuris muris; conditions: resynthesised compound, activity on T. muris embryonation (Yes/No)
# Method: To assess whether the dihydrobenzoxazepinone compounds could also prevent embryonation, 100 un-embryonated eggs were treated with OX02983 and OX03153 at 100μM for 56 days in the dark at room temperature, then examined under an Olympus SD-ILK microscope for signs of embryonation.
# [6] = Neutral red cytotoxicity assay; format: cell-based, mouse; conditions: mouse, CMT-93 rectal epithelial cells; resynthesised compound, neutral red cytotoxicity; read-out: ResynCytotoxicityNeutralRed(EC50uM)
# Method: as §2
# [7] = test system: embryonated T. muris eggs; experiment: In vivo establishment of infection by compound-treated embryonated eggs; set-up: species or system Trichuris muris; conditions: for Reduction of infectivity in vivo of treated embryonated eggs: washed, 30 eggs by oral gavage to mice, worms counted day 15, versus DMSO control
# Method: 100 infective embryonated eggs were incubated with water, water plus DMSO vehicle, or test compounds at a final concentration of 100μM for 14 days at room temperature. Eggs were then washed, re-suspended in water and 30 eggs given to a mouse via oral gavage. At day 15 post-infection, mice were culled and the number of worms present in the caecae and colon was counted. One data point was excluded: a water control individual mouse where there were technical difficulties with the oral gavage leading to the mouse regurgitating some of the T. muris eggs. It was ear marked at day of gavage and removed from the analysis.
# We collected data using the same experimental design on different occasions, these are referred to as batches. Data were obtained from three batches (DMSO and water controls, batches [A,B,C]) or two batches (OX02983 [A,C], OX03153 [B,C]) with the total number of mice used, n, as follows: DMSO: 14, water: 16, OX02983: 10, OX03153: 12. The data were analysed by 2-way ANOVA (worms ~ treatment + batch + treatment * batch). There was no significant interaction effect (P = 0.14) or effect of batch (P = 0.47). We therefore combined the data from the three batches. […] We then conducted a post-hoc test using Tukey’s honest significant difference test.
# [8] = Trichuris muris, values of Fig 5 shown for comparison, read-out: EC50 in adult Trichuris paralysis assay
# [9] = Trichuris muris, resynthesised compound, adult T. muris paralysis, read-out: ResynActivityTmurisAdultParalysis(EC50uM)
molecule,measurement,setting,value
CCCSc1ccc2nc(NC(=O)OC)[nH]c2c1 [albendazole],Cure rate for infection with T. trichiura,T. trichiura; single doses of benzimidazoles,28%
same,"Cure rate, Ascaris",Ascaris,up to 95%
"CN(C)CCCN1c2ccccc2Sc2ccc(Cl)cc21 [Chlorpromazine, reference compound]",EC50,"[1]; Mus musculus, CMT93",9 µM
same,EC50,"[2]; Mus musculus, CMT93",10 µM
"O=C1COCc2cc(-c3cccnc3)ccc2N1CC1CCCCC1 [OX02993, 1-(Cyclohexylmethyl)-7-(pyridin-3-yl)-1,5-dihydrobenzo[e][1,4]oxazepin-2(3H)-one]",EC50,"[1]; Mus musculus, CMT93",> 100 µM
same,EC50,adult T. muris; [8],52 µM
same,EC50,"[2]; Mus musculus, CMT93",> 100 µM
C/C=C/c1cc(OC)c2c(c1)OCO2 [isomyristicin],Activity against T. muris,T. muris [3],activity against T. muris
ficin,Effect on motility of T. muris parasites in vitro,T. muris [4],rapidly reduce motility
COc1c2ccoc2cc2oc(=O)ccc12 [bergapten],Activity against T. muris,T. muris [3],activity against T. muris
CN1CCCN=C1/C=C/c1cccc(O)c1.O=C(O)c1cc2ccccc2c(Cc2c(O)c(C(=O)O)cc3ccccc23)c1O [oxantel pamoate],"Single-dose cure rate, T. trichiura","T. trichiura; children, optimal dose, dose-ranging study",60%
"Cc1ccc(CN2C(=O)COCc3cc(Br)ccc32)cc1 [OX03146, 7-Bromo-1-(4-methylbenzyl)-1,5-dihydrobenzo[e][1,4]oxazepin-2(3H)-one]",EC50,"[1]; Mus musculus, CMT93",63 µM
same,EC50,adult T. muris; [8],35 µM
same,EC50,"[2]; Mus musculus, CMT93",47 µM
"c1ccc([C@H]2CN3CCSC3=N2)cc1 [Levamisole, reference compound]","Single-dose cure rate, trichiuriasis","T. trichiura; single dose, no reference given",9%
same,EC50,"adult T. muris; Trichuris muris, single adult worms, 24 hours incubation, automated motility assay, EC50 ± standard error, n = 5 (OX03144 n = 10), read-out: EC50, attenuation of ex vivo T. muris adult motility",8 µM
Cc1ccc(CN2C(=O)COCc3cc(-c4ccncc4)ccc32)cc1 [Compound 1],EC50 at 72 h,WST-8 cytotoxicity assay,> 100 µM
same,EC50,adult T. muris; [9],50 µM
same,COMBINED_SCREEN_ACTIVITY,adult T. muris,8.615
same,PRIMARY_SCREEN_MINUS_LOG_FOLD_CHANGE_MOVEMENT,adult T. muris,10.6993
same,SECONDARY_SCREEN_MINUS_LOG_FOLD_CHANGE_MOVEMENT,adult T. muris,6.531
same,ResynActivityTmurisEmbryonation,[5],No
same,EC50 at 72 h,[6],> 100 µM
same,ResynActivityTmurisEggInfectivity,"[7]; resynthesised compound, activity on T. muris egg infectivity (Yes/No)",Yes
O=C1COCc2cc(-c3cccnc3)ccc2N1Cc1ccc(C(F)(F)F)cc1 [Compound 3],EC50 at 72 h,WST-8 cytotoxicity assay,> 100 µM
same,EC50,adult T. muris; [9],26 µM
same,COMBINED_SCREEN_ACTIVITY,adult T. muris,11.4716
same,PRIMARY_SCREEN_MINUS_LOG_FOLD_CHANGE_MOVEMENT,adult T. muris,10.3243
same,SECONDARY_SCREEN_MINUS_LOG_FOLD_CHANGE_MOVEMENT,adult T. muris,12.6188
same,EC50 at 72 h,[6],60 µM
"1-(4-Methylbenzyl)-7-(pyridin-4-yl)-1,5-dihydrobenzo[e][1,4]oxazepin-2(3H)-one [OX03153]",EC50,[1],> 100 µM
same,EC50,"adult T. muris; values of Fig 5 shown for comparison, read-out: EC50 in adult Trichuris paralysis assay",57 µM
same,EC50,[2],> 100 µM
same,Reduction of infectivity in vivo of treated embryonated eggs,[7]; eggs soaked 14 days at 100μM,not active
O=C1COCc2cc(-c3cccnc3)ccc2N1CC1CCCCC1 [Compound 2],EC50 at 72 h,WST-8 cytotoxicity assay,> 100 µM
same,EC50,adult T. muris; [9],52 µM
same,COMBINED_SCREEN_ACTIVITY,adult T. muris,11.5091
same,PRIMARY_SCREEN_MINUS_LOG_FOLD_CHANGE_MOVEMENT,adult T. muris,10.3993
same,SECONDARY_SCREEN_MINUS_LOG_FOLD_CHANGE_MOVEMENT,adult T. muris,12.6188
same,EC50 at 72 h,[6],> 100 µM
"Cc1ccc(CN2C(=O)COCc3cc(-c4ccncc4)ccc32)cc1 [OX02983, 1-(4-Methylbenzyl)-7-(pyridin-4-yl)-1,5-dihydrobenzo[e][1,4]oxazepin-2(3H)-one]",EC50,"[1]; Mus musculus, CMT93",> 100 µM
same,EC50,adult T. muris; [8],50 µM
same,EC50,"[2]; Mus musculus, CMT93",> 100 µM
same,Median worms establishing infection,"[7]; eggs soaked 14 days at 100μM, 30 eggs by oral gavage, day 15 post-infection",5.5 worms
same,Reduction of infectivity in vivo of treated embryonated eggs,[7]; eggs soaked 14 days at 100μM,~54%
"O=C1COCc2cc(-c3cccnc3)ccc2N1Cc1ccc(C(F)(F)F)cc1 [OX03144, 7-(Pyridin-3-yl)-1-(4-(trifluoromethyl)benzyl)-1,5-dihydrobenzo[e][1,4]oxazepin-2(3H)-one]",EC50,"[1]; Mus musculus, CMT93",> 100 µM
same,EC50,adult T. muris; [8],26 µM
same,EC50,"[2]; Mus musculus, CMT93",60 µM
O=c1cc(-c2ccc(O)c(O)c2)oc2cc(O)cc(O)c12 [luteolin],Activity against T. muris,T. muris [3],activity against T. muris
Cc1ccc(CN2C(=O)COCc3cc(Br)ccc32)cc1 [Compound 4],EC50 at 72 h,WST-8 cytotoxicity assay,63 µM
same,EC50,adult T. muris; [9],35 µM
same,COMBINED_SCREEN_ACTIVITY,adult T. muris,11.5841
same,PRIMARY_SCREEN_MINUS_LOG_FOLD_CHANGE_MOVEMENT,adult T. muris,10.5493
same,SECONDARY_SCREEN_MINUS_LOG_FOLD_CHANGE_MOVEMENT,adult T. muris,12.6188
same,EC50 at 72 h,[6],47 µM
COc1ccccc1-c1ccc2c(c1)COCC(=O)N2Cc1cc(F)cc(F)c1 [Compound 155],COMBINED_SCREEN_ACTIVITY,adult T. muris,-0.9332
same,PRIMARY_SCREEN_MINUS_LOG_FOLD_CHANGE_MOVEMENT,adult T. muris,-0.9332
COCc1cccc(-c2ccc3c(c2)N(CCN2CCOCC2)C(=O)COC3)c1 [Compound 158],COMBINED_SCREEN_ACTIVITY,adult T. muris,-1.5946
same,PRIMARY_SCREEN_MINUS_LOG_FOLD_CHANGE_MOVEMENT,adult T. muris,-1.5946
B1,Effect on motility of T. muris parasites in vitro,T. muris [4],rapidly reduce motility
